The values below come from article doi:10.1101/2022.09.09.507317v1 (biorxiv, 2022).

Where only a bound is given, the exact number is not on record here.

A word on the IC50: it is the concentration that inhibits the measured activity by half. High values mean lower potency, low ones higher potency.

What all share (test): actin-activated ATPase, PK/LDH-coupled NADH absorbance
Test [1] concerns the target bovine cardiac myosin (Bos taurus, UniProt Q9BE39). It counts as biochemical. Conditions: 2 mM ATP, 3 mM MgCl2, 5 mM KCl, pH 7.4, 2% DMSO, 200 nM myosin, n = 3.
The target in test [2] is chicken smooth muscle myosin (Gallus gallus, UniProt P10587). It counts as biochemical. Particulars: 2 mM ATP, 3 mM MgCl2, 5 mM KCl, pH 7.4, 2% DMSO, 300 nM myosin, n = 2.
Sequence of chicken smooth muscle myosin (P10587 2-1979): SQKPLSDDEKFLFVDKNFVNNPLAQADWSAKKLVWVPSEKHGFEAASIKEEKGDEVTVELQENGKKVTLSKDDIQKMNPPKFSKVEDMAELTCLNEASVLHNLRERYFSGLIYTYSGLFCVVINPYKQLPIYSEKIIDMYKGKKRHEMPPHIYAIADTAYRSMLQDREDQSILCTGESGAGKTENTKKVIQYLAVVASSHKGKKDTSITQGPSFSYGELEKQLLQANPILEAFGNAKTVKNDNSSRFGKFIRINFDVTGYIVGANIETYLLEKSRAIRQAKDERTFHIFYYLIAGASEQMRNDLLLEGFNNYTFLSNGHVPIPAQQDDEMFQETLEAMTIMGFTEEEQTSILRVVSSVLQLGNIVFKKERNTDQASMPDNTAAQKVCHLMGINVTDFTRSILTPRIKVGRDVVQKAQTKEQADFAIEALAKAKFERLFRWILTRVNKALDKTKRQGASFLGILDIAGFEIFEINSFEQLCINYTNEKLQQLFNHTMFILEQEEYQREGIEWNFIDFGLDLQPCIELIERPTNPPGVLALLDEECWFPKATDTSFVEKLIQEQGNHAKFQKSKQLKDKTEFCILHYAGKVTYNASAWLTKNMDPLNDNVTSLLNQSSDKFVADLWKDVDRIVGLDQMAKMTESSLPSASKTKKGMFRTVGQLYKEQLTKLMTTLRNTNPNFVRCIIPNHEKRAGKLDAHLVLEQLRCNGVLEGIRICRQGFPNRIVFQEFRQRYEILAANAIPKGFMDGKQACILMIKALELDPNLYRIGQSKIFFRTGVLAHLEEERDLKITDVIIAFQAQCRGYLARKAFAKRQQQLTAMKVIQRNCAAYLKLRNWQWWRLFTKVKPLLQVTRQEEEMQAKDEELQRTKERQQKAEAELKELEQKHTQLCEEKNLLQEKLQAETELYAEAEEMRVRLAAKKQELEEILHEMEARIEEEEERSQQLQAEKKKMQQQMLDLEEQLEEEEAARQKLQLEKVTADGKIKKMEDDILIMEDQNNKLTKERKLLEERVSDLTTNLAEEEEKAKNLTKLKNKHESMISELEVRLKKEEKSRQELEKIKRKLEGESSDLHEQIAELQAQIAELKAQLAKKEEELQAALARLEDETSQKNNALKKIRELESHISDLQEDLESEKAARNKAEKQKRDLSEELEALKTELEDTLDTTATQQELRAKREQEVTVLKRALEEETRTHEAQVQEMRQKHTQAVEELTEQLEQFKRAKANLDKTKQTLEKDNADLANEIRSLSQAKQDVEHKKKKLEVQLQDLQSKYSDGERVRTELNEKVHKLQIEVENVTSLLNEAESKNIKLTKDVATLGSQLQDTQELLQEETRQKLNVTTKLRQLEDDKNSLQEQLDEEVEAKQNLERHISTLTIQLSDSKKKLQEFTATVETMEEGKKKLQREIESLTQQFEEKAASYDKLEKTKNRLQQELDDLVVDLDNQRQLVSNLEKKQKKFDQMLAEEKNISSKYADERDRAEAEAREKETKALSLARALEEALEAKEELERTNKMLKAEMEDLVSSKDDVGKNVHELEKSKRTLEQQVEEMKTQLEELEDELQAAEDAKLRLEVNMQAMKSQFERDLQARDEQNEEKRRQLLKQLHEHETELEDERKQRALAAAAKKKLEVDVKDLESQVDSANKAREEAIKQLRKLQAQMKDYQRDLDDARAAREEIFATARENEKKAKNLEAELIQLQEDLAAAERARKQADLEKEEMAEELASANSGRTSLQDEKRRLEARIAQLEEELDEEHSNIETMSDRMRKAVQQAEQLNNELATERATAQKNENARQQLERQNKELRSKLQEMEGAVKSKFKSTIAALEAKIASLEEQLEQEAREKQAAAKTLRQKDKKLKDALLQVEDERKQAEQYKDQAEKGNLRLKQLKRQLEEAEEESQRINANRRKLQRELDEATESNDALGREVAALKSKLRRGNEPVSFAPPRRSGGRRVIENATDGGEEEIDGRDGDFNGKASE
Sequence of chicken smooth muscle myosin (P02607 2-151 partner): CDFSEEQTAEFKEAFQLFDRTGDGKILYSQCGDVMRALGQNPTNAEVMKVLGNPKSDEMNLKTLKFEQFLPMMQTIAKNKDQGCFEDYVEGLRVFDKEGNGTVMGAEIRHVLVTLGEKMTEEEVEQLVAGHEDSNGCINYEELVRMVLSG
Sequence of chicken smooth muscle myosin (P02612 2-172 partner): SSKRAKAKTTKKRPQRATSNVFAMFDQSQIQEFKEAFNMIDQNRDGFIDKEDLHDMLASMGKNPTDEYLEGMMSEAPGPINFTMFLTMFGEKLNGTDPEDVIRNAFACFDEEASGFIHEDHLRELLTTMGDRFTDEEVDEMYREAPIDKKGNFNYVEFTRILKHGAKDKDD
Test [3] addresses rabbit skeletal myosin. It counts as biochemical, Oryctolagus cuniculus. Conditions: 2 mM ATP, 3 mM MgCl2, 5 mM KCl, pH 7.4, 2% DMSO, 100 nM myosin, n = 6.
Test [4] has as its target T1, PfMyoA (Plasmodium falciparum, UniProt Q8IDR3).
T1 sequence (Q8IDR3 1-818): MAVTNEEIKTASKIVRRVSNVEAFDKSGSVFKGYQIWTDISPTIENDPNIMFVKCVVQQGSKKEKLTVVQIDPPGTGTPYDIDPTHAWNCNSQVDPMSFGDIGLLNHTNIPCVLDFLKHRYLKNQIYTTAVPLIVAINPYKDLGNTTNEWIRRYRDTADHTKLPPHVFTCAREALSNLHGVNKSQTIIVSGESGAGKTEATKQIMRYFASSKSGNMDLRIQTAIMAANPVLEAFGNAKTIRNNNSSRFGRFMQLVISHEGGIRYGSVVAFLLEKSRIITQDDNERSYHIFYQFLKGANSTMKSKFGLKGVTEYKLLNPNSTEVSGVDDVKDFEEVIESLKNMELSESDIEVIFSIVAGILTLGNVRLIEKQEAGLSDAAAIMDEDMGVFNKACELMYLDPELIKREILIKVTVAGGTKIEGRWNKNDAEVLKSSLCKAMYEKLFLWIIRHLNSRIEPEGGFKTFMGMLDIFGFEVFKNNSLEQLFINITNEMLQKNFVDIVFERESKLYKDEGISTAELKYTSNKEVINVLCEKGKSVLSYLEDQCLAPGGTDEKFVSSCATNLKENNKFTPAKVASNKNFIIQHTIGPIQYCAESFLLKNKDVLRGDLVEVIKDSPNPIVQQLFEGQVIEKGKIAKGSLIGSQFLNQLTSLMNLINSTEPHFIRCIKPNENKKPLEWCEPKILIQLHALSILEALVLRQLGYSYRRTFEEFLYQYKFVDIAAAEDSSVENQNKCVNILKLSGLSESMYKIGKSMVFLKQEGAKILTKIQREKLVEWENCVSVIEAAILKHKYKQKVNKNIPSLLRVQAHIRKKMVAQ
T1 sequence (Q8IJM4 1-134 partner): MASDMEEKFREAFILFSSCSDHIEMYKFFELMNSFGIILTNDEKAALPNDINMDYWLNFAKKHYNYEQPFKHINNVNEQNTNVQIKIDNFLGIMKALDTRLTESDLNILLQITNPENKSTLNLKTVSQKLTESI
T1 sequence (Q8I4W8 1-204 partner): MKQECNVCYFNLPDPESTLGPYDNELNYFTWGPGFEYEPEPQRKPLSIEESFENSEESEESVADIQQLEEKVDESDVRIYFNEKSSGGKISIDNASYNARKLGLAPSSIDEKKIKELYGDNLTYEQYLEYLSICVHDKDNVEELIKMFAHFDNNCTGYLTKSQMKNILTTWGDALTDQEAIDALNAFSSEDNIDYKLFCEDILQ
It counts as biochemical. Particulars: 2 mM ATP, bovine cardiac actin, 3 mM MgCl2, 5 mM KCl, pH 7.4, 2% DMSO; n = 5.

Sequence of bovine cardiac myosin (Q9BE39 whole entry): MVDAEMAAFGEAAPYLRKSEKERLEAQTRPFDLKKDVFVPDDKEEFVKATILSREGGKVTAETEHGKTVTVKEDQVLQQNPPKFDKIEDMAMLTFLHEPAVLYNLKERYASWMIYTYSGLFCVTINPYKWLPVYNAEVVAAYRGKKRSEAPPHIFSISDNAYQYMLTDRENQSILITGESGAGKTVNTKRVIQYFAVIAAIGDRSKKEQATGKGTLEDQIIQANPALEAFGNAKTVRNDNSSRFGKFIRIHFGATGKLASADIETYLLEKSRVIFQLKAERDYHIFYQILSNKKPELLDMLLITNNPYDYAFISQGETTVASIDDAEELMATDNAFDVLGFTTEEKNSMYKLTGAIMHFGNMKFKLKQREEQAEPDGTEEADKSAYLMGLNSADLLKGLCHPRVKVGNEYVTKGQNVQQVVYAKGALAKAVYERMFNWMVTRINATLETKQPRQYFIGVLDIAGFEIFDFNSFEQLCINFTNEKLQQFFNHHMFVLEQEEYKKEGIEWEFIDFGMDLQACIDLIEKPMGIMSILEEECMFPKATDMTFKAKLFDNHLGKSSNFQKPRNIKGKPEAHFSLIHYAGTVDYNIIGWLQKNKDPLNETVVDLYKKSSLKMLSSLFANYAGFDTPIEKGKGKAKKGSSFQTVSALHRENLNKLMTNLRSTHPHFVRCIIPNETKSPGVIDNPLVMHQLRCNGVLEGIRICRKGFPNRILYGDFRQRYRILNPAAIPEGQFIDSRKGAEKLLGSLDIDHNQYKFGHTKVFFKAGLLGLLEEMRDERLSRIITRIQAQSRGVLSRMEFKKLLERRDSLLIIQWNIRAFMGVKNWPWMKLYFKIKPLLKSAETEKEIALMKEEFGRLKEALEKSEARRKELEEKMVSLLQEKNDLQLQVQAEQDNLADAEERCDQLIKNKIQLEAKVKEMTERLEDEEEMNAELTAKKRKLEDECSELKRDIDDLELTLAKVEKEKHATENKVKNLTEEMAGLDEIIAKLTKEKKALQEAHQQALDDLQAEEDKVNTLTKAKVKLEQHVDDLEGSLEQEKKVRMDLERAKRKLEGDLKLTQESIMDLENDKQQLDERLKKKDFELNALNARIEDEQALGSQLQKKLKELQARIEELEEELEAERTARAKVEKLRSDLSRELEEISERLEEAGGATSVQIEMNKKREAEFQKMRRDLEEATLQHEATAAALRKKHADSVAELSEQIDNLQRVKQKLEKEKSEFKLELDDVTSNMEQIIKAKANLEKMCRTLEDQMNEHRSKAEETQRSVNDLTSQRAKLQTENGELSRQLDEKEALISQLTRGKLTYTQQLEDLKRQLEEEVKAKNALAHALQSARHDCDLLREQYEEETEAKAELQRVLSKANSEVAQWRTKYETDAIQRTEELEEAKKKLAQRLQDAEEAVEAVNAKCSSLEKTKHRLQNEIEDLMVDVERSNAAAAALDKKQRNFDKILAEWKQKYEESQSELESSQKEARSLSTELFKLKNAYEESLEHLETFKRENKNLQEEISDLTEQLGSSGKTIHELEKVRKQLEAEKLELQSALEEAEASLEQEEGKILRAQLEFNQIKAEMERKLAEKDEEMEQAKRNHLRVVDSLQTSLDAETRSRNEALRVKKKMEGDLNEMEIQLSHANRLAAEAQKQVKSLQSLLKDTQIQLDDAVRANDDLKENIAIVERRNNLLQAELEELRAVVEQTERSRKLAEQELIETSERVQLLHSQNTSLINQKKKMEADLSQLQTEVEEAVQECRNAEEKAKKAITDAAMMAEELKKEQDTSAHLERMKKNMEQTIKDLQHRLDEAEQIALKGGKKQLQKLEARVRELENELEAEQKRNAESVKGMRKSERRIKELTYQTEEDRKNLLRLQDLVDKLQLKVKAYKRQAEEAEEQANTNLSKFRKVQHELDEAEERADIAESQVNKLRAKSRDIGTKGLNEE
Sequence of bovine cardiac myosin (P85100 2-199 partner): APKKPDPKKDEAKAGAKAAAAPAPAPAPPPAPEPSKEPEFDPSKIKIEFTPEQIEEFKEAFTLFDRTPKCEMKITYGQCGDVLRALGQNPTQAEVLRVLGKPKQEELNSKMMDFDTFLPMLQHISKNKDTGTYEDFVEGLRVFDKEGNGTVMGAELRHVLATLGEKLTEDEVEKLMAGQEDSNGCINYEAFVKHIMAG
Sequence of bovine cardiac myosin (Q3SZE5 2-166 partner): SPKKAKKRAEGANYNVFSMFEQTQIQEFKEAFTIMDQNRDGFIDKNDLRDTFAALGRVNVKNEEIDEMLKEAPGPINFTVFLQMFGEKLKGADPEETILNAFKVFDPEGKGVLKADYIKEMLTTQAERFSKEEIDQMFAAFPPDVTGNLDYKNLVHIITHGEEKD

Regarding KNX-115, the IC50 was 10000 ± 6400 nM in test [1], over 50000 nM in test [2] and 1000 ± 400 nM in test [3].
In test [4], `COc1ccc(C2(NCc3c[nH]nc3-c3cccs3)CC2)cc1` [KNX-002] registered a half-inhibitory concentration (IC50) of 400 ± 100 nM.
